In article PMC12621043, “Un-LOK-ing a New Approach for Conformational Selective Targeting of STK10 (LOK)” (ACS Medicinal Chemistry Letters, 2025):

These molecules were tested against T1, STK10 (Homo sapiens, UniProt O94804) (assay: DSF Tm panel). Details: 10 μM compound.
T1 construct: purchased in-house DSF kinase panel (SGC-style construct names; the trailing letter is the construct ID)
T1 sequence (O94804 18-317 limits assumed): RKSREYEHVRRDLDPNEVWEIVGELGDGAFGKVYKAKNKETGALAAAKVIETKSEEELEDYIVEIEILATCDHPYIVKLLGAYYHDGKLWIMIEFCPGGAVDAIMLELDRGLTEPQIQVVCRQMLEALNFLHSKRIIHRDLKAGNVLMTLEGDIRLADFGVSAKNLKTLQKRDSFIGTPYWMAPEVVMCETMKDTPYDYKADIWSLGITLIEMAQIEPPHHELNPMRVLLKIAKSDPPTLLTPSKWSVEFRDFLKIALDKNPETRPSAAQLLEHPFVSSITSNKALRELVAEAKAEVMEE
Type: binding
In the case of `O=C(NCc1cccc(Cl)c1)Nc1ccc2cc1OCCOCCNc1ccn3ncc-2c3n1` [compound 18], the ΔTm at 10 µM was 9.4 °C.

What follows are molecules tested against T2, UKL3A (ULK3A) (Homo sapiens, UniProt Q6PHR2) (assay: DSF Tm panel). Details: 10 μM compound.
T2 construct: purchased in-house DSF kinase panel (SGC-style construct names; the trailing letter is the construct ID)
T2 sequence (Q6PHR2 1-279): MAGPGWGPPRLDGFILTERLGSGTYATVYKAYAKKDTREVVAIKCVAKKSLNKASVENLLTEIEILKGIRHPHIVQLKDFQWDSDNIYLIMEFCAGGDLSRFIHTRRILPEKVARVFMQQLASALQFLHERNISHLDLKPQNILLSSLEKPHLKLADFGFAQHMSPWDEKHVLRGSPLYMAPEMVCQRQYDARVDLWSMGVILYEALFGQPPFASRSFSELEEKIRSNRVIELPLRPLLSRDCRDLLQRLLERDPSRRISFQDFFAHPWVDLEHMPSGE
Type: binding
Molecule `O=C(NCc1cccc(Cl)c1)Nc1ccc2cc1OCCOCCNc1ccn3ncc-2c3n1` [compound 18] has a ΔTm at 10 µM of 4.6 °C.

The molecules below were run against T3, CLK1A (Homo sapiens, UniProt P49759) (assay: DSF Tm panel). Details: 10 μM compound.
T3 construct: purchased in-house DSF kinase panel (SGC-style construct names; the trailing letter is the construct ID)
T3 sequence (P49759 148-484): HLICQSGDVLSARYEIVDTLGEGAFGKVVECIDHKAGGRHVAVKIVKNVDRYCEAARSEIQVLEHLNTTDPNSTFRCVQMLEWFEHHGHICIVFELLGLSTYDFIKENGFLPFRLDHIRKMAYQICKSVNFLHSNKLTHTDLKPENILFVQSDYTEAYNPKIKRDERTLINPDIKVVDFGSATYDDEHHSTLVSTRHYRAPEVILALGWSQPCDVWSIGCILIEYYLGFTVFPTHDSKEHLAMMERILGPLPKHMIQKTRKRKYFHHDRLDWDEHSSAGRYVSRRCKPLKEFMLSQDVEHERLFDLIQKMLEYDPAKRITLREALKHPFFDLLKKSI
Type: binding
Work on `O=C(NCc1cccc(Cl)c1)Nc1ccc2cc1OCCOCCNc1ccn3ncc-2c3n1` [compound 18] yielded a ΔTm at 10 µM of 2.9 °C.

Each molecule was assayed against T4, DAPK3 (DAPK3A) (Homo sapiens, UniProt O43293) (assay: DSF Tm panel). Details: 10 μM compound.
T4 construct: purchased in-house DSF kinase panel (SGC-style construct names; the trailing letter is the construct ID)
T4 sequence (O43293 whole entry): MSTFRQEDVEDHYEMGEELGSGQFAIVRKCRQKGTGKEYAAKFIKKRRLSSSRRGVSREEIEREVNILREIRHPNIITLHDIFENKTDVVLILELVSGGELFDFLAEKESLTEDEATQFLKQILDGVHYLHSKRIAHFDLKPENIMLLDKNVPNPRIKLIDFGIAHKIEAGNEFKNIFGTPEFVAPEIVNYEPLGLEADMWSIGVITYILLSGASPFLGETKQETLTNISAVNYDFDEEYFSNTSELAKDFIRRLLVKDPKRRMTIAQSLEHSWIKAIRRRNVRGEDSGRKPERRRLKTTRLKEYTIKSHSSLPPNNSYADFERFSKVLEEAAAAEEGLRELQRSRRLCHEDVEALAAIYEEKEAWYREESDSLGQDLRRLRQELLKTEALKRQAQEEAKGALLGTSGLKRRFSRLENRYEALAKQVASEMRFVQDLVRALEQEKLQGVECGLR
Type: binding
`O=C(NCc1cccc(Cl)c1)Nc1ccc2cc1OCCOCCNc1ccn3ncc-2c3n1` [compound 18] gave a ΔTm at 10 µM of 1.3 °C.

These molecules were tested against T5, MAP3K5A (Homo sapiens, UniProt Q99683) (assay: DSF Tm panel). Details: 10 μM compound.
T5 construct: purchased in-house DSF kinase panel (SGC-style construct names; the trailing letter is the construct ID)
T5 sequence (Q99683 659-951): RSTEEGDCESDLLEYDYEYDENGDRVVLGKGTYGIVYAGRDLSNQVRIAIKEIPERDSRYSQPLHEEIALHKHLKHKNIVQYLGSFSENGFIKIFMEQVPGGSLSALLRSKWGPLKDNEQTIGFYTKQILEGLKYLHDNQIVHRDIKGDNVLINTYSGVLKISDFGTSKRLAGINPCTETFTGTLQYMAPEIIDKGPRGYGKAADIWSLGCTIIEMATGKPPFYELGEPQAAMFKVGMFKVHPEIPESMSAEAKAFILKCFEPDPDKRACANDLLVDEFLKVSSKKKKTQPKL
Type: binding
Molecule `O=C(NCc1cccc(Cl)c1)Nc1ccc2cc1OCCOCCNc1ccn3ncc-2c3n1` [compound 18] has a ΔTm at 10 µM of 1.6 °C.

Each molecule was assayed against T6, PCTK1A (Homo sapiens, UniProt Q00536) (assay: DSF Tm panel). Details: 10 μM compound.
T6 construct: purchased in-house DSF kinase panel (SGC-style construct names; the trailing letter is the construct ID)
T6 sequence (Q00536 163-478): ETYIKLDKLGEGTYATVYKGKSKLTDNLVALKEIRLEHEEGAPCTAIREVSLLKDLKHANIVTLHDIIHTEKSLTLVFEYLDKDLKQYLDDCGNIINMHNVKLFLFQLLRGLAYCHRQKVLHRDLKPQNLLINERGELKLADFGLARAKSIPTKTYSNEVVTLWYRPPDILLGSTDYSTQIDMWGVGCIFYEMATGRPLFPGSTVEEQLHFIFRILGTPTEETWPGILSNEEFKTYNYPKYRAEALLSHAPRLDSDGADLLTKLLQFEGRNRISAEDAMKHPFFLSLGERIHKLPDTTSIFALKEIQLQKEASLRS
Type: binding
`O=C(NCc1cccc(Cl)c1)Nc1ccc2cc1OCCOCCNc1ccn3ncc-2c3n1` [compound 18] was tested, and the ΔTm at 10 µM was 1.3 °C.

The molecules below were run against T7, MAP2K6A (Homo sapiens, UniProt P52564) (assay: DSF Tm panel). Details: 10 μM compound.
T7 construct: purchased in-house DSF kinase panel (SGC-style construct names; the trailing letter is the construct ID)
T7 sequence (P52564 53-314): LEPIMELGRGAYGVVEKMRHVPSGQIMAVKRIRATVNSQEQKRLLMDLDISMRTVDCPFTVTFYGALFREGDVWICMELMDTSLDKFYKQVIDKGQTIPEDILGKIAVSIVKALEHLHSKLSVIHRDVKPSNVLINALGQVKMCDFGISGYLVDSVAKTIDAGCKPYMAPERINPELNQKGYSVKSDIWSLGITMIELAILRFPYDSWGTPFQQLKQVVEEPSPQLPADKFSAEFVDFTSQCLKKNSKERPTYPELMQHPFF
Type: binding
`O=C(NCc1cccc(Cl)c1)Nc1ccc2cc1OCCOCCNc1ccn3ncc-2c3n1` [compound 18] gave a ΔTm at 10 µM of 1.2 °C.

What follows are molecules tested against T8, CAMK2BA (Homo sapiens, UniProt Q13554) (assay: DSF Tm panel). Details: 10 μM compound.
T8 construct: purchased in-house DSF kinase panel (SGC-style construct names; the trailing letter is the construct ID)
T8 sequence (Q13554 11-303): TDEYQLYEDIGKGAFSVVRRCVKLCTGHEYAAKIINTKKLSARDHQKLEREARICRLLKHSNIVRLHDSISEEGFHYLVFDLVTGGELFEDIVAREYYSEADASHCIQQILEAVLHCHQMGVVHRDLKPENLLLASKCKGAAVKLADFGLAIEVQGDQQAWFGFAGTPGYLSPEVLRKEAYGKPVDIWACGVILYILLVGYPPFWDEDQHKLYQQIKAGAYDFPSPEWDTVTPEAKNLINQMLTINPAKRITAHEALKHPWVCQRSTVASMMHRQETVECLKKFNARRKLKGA
Type: binding
Molecule `O=C(NCc1cccc(Cl)c1)Nc1ccc2cc1OCCOCCNc1ccn3ncc-2c3n1` [compound 18] has a ΔTm at 10 µM of 0.8 °C.

What follows are molecules tested against T9, ABL1 (ABL1A) (Homo sapiens, UniProt P00519) (assay: DSF Tm panel). Details: 10 μM compound.
T9 construct: purchased in-house DSF kinase panel (SGC-style construct names; the trailing letter is the construct ID)
T9 sequence (P00519 229-512): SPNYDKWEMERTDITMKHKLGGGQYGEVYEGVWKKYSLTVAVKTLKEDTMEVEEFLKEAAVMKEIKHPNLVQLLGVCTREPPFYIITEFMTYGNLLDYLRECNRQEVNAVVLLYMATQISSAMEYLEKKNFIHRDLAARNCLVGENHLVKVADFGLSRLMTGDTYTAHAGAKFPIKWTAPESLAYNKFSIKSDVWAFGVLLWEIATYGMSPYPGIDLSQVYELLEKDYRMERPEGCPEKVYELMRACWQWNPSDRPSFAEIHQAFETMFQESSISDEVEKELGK
Type: binding
`O=C(NCc1cccc(Cl)c1)Nc1ccc2cc1OCCOCCNc1ccn3ncc-2c3n1` [compound 18] was tested, and the ΔTm at 10 µM was 1.8 °C.

These molecules were tested against T10, PIM1 (PIM1A) (Homo sapiens, UniProt P11309) (assay: DSF Tm panel). Details: 10 μM compound.
T10 construct: purchased in-house DSF kinase panel (SGC-style construct names; the trailing letter is the construct ID)
T10 sequence (P11309 whole entry): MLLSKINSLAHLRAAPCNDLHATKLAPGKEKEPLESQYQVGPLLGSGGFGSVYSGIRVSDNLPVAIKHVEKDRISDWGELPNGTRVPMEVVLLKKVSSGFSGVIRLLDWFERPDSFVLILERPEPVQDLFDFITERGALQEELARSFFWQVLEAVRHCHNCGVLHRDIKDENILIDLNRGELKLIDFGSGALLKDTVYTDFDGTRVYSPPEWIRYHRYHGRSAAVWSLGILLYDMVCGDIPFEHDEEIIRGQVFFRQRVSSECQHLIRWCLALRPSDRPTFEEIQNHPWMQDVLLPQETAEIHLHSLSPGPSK
Type: binding
`O=C(NCc1cccc(Cl)c1)Nc1ccc2cc1OCCOCCNc1ccn3ncc-2c3n1` [compound 18] gave a ΔTm at 10 µM of 3.2 °C.

What follows are molecules tested against T11, GPRK5A (Homo sapiens, UniProt P34947) (assay: DSF Tm panel). Details: 10 μM compound.
T11 construct: purchased in-house DSF kinase panel (SGC-style construct names; the trailing letter is the construct ID)
T11 sequence (P34947 186-514): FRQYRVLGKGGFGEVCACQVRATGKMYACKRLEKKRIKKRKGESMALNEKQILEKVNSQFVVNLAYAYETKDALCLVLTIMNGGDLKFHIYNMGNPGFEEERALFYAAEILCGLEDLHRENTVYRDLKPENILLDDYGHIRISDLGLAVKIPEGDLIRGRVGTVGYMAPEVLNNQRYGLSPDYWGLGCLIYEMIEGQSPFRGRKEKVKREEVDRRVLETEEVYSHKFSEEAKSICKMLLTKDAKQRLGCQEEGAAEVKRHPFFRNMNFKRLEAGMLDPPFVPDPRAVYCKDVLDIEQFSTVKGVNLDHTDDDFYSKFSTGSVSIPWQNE
Type: binding
`O=C(NCc1cccc(Cl)c1)Nc1ccc2cc1OCCOCCNc1ccn3ncc-2c3n1` [compound 18] showed a ΔTm at 10 µM of 1.1 °C.

The molecules below were run against T12, BRAFA (Homo sapiens, UniProt P15056) (assay: DSF Tm panel). Details: 10 μM compound.
T12 construct: purchased in-house DSF kinase panel (SGC-style construct names; the trailing letter is the construct ID)
T12 sequence (P15056 448-723): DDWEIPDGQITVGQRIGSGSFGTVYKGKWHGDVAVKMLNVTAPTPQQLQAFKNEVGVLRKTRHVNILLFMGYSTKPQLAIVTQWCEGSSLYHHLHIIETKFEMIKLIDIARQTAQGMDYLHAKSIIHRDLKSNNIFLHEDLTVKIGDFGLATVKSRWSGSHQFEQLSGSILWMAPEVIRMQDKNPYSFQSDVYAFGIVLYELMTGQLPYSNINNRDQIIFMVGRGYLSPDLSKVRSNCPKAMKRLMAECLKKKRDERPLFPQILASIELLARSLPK
Type: binding
With `O=C(NCc1cccc(Cl)c1)Nc1ccc2cc1OCCOCCNc1ccn3ncc-2c3n1` [compound 18] the ΔTm at 10 µM was 0.6 °C.

Each molecule was assayed against T13, CSNK1DA (Homo sapiens, UniProt P48730) (assay: DSF Tm panel). Details: 10 μM compound.
T13 construct: purchased in-house DSF kinase panel (SGC-style construct names; the trailing letter is the construct ID)
T13 sequence (P48730 1-294): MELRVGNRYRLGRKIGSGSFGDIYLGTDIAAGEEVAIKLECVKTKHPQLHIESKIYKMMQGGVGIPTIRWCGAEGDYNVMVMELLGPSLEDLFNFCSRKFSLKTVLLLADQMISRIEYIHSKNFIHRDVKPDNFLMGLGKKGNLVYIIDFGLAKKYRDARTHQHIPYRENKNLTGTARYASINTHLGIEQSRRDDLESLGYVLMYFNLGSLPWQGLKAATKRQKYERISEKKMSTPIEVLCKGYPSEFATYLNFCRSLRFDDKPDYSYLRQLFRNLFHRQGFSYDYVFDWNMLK
Type: binding
In the case of `O=C(NCc1cccc(Cl)c1)Nc1ccc2cc1OCCOCCNc1ccn3ncc-2c3n1` [compound 18], the ΔTm at 10 µM was 0.4 °C.

These molecules were tested against T14, OSR1A (Homo sapiens, UniProt O95747) (assay: DSF Tm panel). Details: 10 μM compound.
T14 construct: purchased in-house DSF kinase panel (SGC-style construct names; the trailing letter is the construct ID)
T14 sequence (O95747 17-291): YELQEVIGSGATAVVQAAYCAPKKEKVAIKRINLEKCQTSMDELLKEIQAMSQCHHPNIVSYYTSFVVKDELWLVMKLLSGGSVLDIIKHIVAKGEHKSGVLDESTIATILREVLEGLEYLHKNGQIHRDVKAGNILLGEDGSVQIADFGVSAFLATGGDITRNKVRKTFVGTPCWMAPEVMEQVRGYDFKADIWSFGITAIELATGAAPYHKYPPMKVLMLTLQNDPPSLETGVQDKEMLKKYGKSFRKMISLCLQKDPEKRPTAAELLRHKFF
Type: binding
Work on `O=C(NCc1cccc(Cl)c1)Nc1ccc2cc1OCCOCCNc1ccn3ncc-2c3n1` [compound 18] yielded a ΔTm at 10 µM of 1.7 °C.

Each molecule was assayed against T15, DMPK1A (Homo sapiens, UniProt Q09013) (assay: DSF Tm panel). Details: 10 μM compound.
T15 construct: purchased in-house DSF kinase panel (SGC-style construct names; the trailing letter is the construct ID)
T15 sequence (Q09013 1-629): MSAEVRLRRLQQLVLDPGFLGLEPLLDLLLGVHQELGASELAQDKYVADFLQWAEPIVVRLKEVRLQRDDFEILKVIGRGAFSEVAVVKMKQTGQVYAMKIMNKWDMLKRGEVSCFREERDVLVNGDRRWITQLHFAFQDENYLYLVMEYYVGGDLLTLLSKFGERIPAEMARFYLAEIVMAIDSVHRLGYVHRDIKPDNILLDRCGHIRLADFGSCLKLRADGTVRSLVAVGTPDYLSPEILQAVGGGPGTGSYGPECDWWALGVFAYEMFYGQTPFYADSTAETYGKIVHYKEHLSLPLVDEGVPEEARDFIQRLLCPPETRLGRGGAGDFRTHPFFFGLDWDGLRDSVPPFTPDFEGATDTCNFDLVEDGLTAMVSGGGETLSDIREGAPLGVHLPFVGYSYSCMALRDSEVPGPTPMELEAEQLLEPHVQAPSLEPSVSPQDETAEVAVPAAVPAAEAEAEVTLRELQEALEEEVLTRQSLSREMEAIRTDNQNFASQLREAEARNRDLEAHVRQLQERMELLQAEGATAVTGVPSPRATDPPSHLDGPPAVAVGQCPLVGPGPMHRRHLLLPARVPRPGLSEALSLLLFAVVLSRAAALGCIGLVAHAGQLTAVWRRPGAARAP
Type: binding
Work on `O=C(NCc1cccc(Cl)c1)Nc1ccc2cc1OCCOCCNc1ccn3ncc-2c3n1` [compound 18] yielded a ΔTm at 10 µM of 0.1 °C.

What follows are molecules tested against T16, SRPK1A (Homo sapiens, UniProt Q96SB4) (assay: DSF Tm panel). Details: 10 μM compound.
T16 construct: purchased in-house DSF kinase panel (SGC-style construct names; the trailing letter is the construct ID)
T16 sequence (Q96SB4 80-653): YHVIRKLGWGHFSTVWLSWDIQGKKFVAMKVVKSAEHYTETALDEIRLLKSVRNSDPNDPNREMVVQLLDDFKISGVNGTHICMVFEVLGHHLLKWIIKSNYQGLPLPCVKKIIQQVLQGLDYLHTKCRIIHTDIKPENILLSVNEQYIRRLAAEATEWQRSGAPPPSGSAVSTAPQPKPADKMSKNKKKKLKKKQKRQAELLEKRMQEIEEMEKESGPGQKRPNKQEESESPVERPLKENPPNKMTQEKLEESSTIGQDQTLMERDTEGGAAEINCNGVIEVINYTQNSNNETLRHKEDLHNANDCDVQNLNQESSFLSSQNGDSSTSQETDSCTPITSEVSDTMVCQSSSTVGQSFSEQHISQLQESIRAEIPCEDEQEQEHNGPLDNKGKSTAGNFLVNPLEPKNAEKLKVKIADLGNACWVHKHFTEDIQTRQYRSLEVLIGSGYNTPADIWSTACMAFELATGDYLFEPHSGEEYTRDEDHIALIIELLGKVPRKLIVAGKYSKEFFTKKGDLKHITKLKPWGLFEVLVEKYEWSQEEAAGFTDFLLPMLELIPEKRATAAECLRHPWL
Type: binding
`O=C(NCc1cccc(Cl)c1)Nc1ccc2cc1OCCOCCNc1ccn3ncc-2c3n1` [compound 18] was tested, and the ΔTm at 10 µM was -0.3 °C.

Each molecule was assayed against T17, AKT3A (Homo sapiens, UniProt Q9Y243) (assay: DSF Tm panel). Details: 10 μM compound.
T17 construct: purchased in-house DSF kinase panel (SGC-style construct names; the trailing letter is the construct ID)
T17 sequence (Q9Y243 148-479): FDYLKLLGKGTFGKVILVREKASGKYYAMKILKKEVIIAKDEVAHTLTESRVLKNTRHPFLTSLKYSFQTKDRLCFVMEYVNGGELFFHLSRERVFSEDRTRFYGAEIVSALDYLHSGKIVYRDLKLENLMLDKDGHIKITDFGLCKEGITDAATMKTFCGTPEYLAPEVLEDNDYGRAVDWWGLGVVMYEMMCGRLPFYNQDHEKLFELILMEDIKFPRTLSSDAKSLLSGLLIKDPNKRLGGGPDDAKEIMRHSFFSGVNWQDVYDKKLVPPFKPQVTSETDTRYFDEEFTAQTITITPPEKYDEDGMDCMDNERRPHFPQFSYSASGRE
Type: binding
`O=C(NCc1cccc(Cl)c1)Nc1ccc2cc1OCCOCCNc1ccn3ncc-2c3n1` [compound 18] was tested, and the ΔTm at 10 µM was -0.4 °C.

These molecules were tested against T18, MAPK14A (Homo sapiens, UniProt Q16539) (assay: DSF Tm panel). Details: 10 μM compound.
T18 construct: purchased in-house DSF kinase panel (SGC-style construct names; the trailing letter is the construct ID)
T18 sequence (Q16539 whole entry): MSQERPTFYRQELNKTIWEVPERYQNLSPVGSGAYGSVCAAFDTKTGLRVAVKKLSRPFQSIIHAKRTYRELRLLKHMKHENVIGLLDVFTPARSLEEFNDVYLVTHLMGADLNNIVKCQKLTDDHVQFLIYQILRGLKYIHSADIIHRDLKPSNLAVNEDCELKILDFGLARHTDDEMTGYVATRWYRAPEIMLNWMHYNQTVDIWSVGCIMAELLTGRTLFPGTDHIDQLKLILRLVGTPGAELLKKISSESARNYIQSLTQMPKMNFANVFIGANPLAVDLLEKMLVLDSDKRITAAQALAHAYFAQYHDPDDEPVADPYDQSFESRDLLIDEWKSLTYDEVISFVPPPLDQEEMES
Type: binding
`O=C(NCc1cccc(Cl)c1)Nc1ccc2cc1OCCOCCNc1ccn3ncc-2c3n1` [compound 18] was tested, and the ΔTm at 10 µM was 0.3 °C.
